Counter-ions that a name gives are not always drawn. Blank lines part the entries; values can stand above or below the compound they belong to.
Assays:
Format in all cases: physicochemical
[1] = Solubility determination of ractopamine HCl in liquid agents (visual, 1-dram vials)
Description: Solubility determinations are performed in 1-dram vials. Add ractopamine HCl to a vial containing a liquid agent to give a final w/w ratio of 10% ractopamine HCl to liquid agent. Mix the solution vigorously on a vortex mixer for 2 to 6 minutes. After the mixing period, visually, assess whether the ractopamine dissolves in the liquid agent or whether insoluble material (cloudy solution or two distinct phases) remains in the vial. If the solubility is less than 10%, add additional liquid agent to dilute the ractopamine HCl to a 5-8% range. Repeat the mixing procedure and assess whether the ractopamine is soluble in the liquid agent or whether it remains insoluble at the lower concentration. Apply heat (from room temperature up to 60° C.) as needed to aid solubilization. Allow heated samples to cool to room temperature to assess solubility by visual observation for precipitant or cloudiness.

[2] = Chemical stability on storage: related substances by chromatogram comparison
[3] = Physical stability on storage (precipitation / remaining in solution); conditions: for Comment: physical stability on storage: 10% ractopamine; for physical stability on storage: 5° C. storage
[4] = Solubility of ractopamine (water, PG, PEG vehicle systems)

Solubility @ RT ([1]; 1,3 Dioxolane): <5%
Solubility @ RT ([1]; 1-Butanol): <10%
Solubility @ RT ([1]; 1-Methyl-2-Pyrrolidinone (Pharmasolve)): <5%
Solubility @ RT ([1]; 2-Pyrrolidone (2-Pyrol)): ≦5%
Solubility @ RT ([1]; 4-Methyl-1-3Dioxolane): <5%
Solubility @ RT ([1]; Acetaldehyde Phenethyl Propyl Acetal (Acetal R)): <10%
Solubility @ RT ([1]; Acetic Acid Glacial (50% solution)): ≧10%
Solubility @ RT ([1]; Acetone): <10%
Solubility @ RT ([1]; Acetophenone): <10%
Solubility @ RT ([1]; Agrimax 3 (2-pyrrolidinone, 1-Octyl 2-Pyrrolidinone, 1-Ethenylhexadecyl-, Homopolymer Sulfuric Acid Monododecyl Ester Sodium Salt)): <5%
Solubility @ RT ([1]; AgsolEx 8): <5%
Solubility @ RT ([1]; Amyl Acetate): <5%
Solubility @ RT ([1]; Aromatic 100): <5%
Solubility @ RT ([1]; Aromatic 200 (SC Solvent 200)): <5%
Solubility @ RT ([1]; Benzoic Acid (0.3% solution)): <10%
Solubility @ RT ([1]; Benzyl Alcohol): ≧5%
Solubility @ RT ([1]; Block Copolymer Pluronic L31): ≦10%
Solubility @ RT ([1]; Block Copolymer Pluronic L61, 50/50 water): ≧10%
Solubility @ RT ([1]; Block Copolymer Pluronic L61, Neat (Viscous)): ≦10%
Solubility @ RT ([1]; Caprylic/Capric Triglycerides, BP, FP (Labrafac CC)): <5%
Solubility @ RT ([1]; Caprylic/capric triglyceride (Migylol 810)): <8%
Solubility @ RT ([1]; Centrapour Clear Fry Oil): <5%
Solubility @ RT ([1]; Citric Acid (50% solution)): <5%
Solubility @ RT ([1]; Corn Oil (Mazzola)): <8%
Solubility @ RT ([1]; Cyclohexanone): <10%
Solubility @ RT ([1]; D-Gluconic Acid): <10%
Solubility @ RT ([1]; D-Glucuronic Acid (20% solution)): <5%
Solubility @ RT ([1]; Dichloromethane): <10%
Solubility @ RT ([1]; Diethylene Glycol): ≧10%
Solubility @ RT ([1]; Diethylenetriamine (DETA)): ≧10%
Solubility @ RT ([1]; Dimethyl Isosorbide): <8%
Solubility @ RT ([1]; Dipropylene glycol n-butyl ether): <10%
Solubility @ RT ([1]; Ethanolamine): ≧10%
Solubility @ RT ([1]; Ethyl Acetate): <5%
Solubility @ RT ([1]; Ethyl Alcohol): <10%
Solubility @ RT ([1]; Ethyl Lactate): <5%
Solubility @ RT ([1]; Ethylene Glycol): ≧10%
Solubility @ RT ([1]; Ethylenediamine): ≧20%
Solubility @ RT ([1]; Forward DC): <5%
Solubility @ RT ([1]; Fumaric Acid): <5%
Solubility @ RT ([1]; Gamma Butylactone): <5%
Solubility @ RT ([1]; Glutamic Acid (20% solution)): <5%
Solubility @ RT ([1]; Glycerol Formal): ≦5%
Solubility @ RT ([1]; Glyceryl and polyethylene glycol esters (Labrasol)): <5%
Solubility @ RT ([1]; Glycol Ether PM): <5%
Solubility @ RT ([1]; Hexane): <5%
Solubility @ RT ([1]; Hydroxypropyl β-Cyclodextrin (Trappsol)): <10%
Solubility @ RT ([1]; Isophorone): <10%
Solubility @ RT ([1]; Isopropyl Myristrate (Emerest 2314)): <8%
Solubility @ RT ([1]; L-Malic Acid (20% solution)): <5%
Solubility @ RT ([1]; L-Tartaric Acid 20% solution): <5%
Solubility @ RT ([1]; Lactic Acid (85% solution)): ≦10%
Solubility @ RT ([1]; Maleic Acid (20% Solution)): ≦10%
Solubility @ RT ([1]; Malonic Acid): ≧5%
Solubility @ RT ([1]; Medium chain triglyceride (Migylol 812)): <8%
Solubility @ RT ([1]; Methanol): ≧10%
Solubility @ RT ([1]; Methyl Caprylate-Caprate (Emery 2209)): <8%
Solubility @ RT ([1]; Methyl Oleate (Emery 2301)): <8%
Solubility @ RT ([1]; Mineral Oil, QA246U): <5%
Solubility @ RT ([1]; Mono-diglyceride of caprylic/capric fatty acids (Capmul MCM)): <8%
Solubility @ RT ([1]; Monomethylated Polyethylene Glycol MPEG 350, 50/50 water): ≧10%
Solubility @ RT ([1]; Monomethylated Polyethylene Glycol MPEG 350, Neat): ≦10%
Solubility @ RT ([1]; Monomethylated Polyethylene Glycol MPEG 550, 50/50 water): ≧10%
Solubility @ RT ([1]; Monomethylated Polyethylene Glycol MPEG 550, Neat): ≦10%
Solubility @ RT ([1]; N,N, Dimethylacetamide): <5%
Solubility @ RT ([1]; Nonylphenol Ethoxylate, POE-10 (Makon 10)): <5%
Solubility @ RT ([1]; Oleic Acid (Priolene 6933)): <5%
Solubility @ RT ([1]; Oleoyl Macrogolglycerides EP (Labrafil M 1944 CS)): <5%
solubility ([1]; PCO to water 50:50 w/w): greater than 10%
solubility ([1]; PSO to water 50:50 w/w): greater than 10%
Solubility @ RT ([1]; Petroleum Ether): <5%
Solubility @ RT ([1]; Petroleum distillates (naphtha), Panasol AN-2K): <5%
Solubility @ RT ([1]; Phosphoric Acid (85% Solution)): <5%
Solubility @ RT ([1]; Polyethylene Glycol Dimethyl Ether (DMPEG-350)): <5%
Solubility @ RT ([1]; Polyethylene Glycol PEG 200, 50/50 water): ≧10%
Solubility @ RT ([1]; Polyethylene Glycol PEG 200, Neat): ≦10%
Solubility @ RT ([1]; Polyethylene Glycol PEG 300, 50/50 water): ≧10%
Solubility @ RT ([1]; Polyethylene Glycol PEG 300, Neat): ≦10%
Solubility @ RT ([1]; Polyethylene Glycol PEG 400, Neat (Viscous)): ≦10%
Solubility @ RT ([1]; Polyglycol P-2000): <5%
Solubility @ RT ([1]; Polyoxyethylene-20-Sorbitan Monolaurate (Tween 20), 50/50 water): ≧10%
Solubility @ RT ([1]; Polyoxyethylene-20-Sorbitan Monolaurate (Tween 20), Neat (Viscous)): ≦10%
Solubility @ RT ([1]; Polyoxyethylene-20-Sorbitan Monooleate (Tween 80), 50/50 water): ≧10%
Solubility @ RT ([1]; Polyoxyethylene-20-Sorbitan Monooleate (Tween 80), Neat (Viscous)): ≦10%
Solubility @ RT ([1]; Polyoxyl 35 Castor Oil (Cremophor EL), 50/50 water): ≧10%
Solubility @ RT ([1]; Polyoxyl 35 Castor Oil (Cremophor EL), Neat (Viscous)): ≦10%
Solubility @ RT ([1]; Propionic Acid (20% solution)): ≧10%
Solubility @ RT ([1]; Propylene Carbonate): <5%
Solubility @ RT ([1]; Propylene Glycol Laurate (Lauroglycol FCC)): <5%
Solubility @ RT ([1]; Propylene glycol diester of caprylic/capric acid (Migylol 840)): <8%
Solubility @ RT ([1]; Soybean Oil Methyl Ester (Soy Gold 2000)): <8%
Solubility @ RT ([1]; Succinic Acid (5% Solution)): <5%
Solubility @ RT ([1]; Sunflower Oil (Wesson)): <8%
Solubility @ RT ([1]; Tetrahydrfurfuryl Alcohol (THFA)): ≦10%
Solubility @ RT ([1]; Tetrahydrofuran (THF)): <10%
Solubility @ RT ([1]; Toulene): <10%
Solubility @ RT ([1]; Triacetin): <5%
Solubility @ RT ([1]; Trichloroethylene): <10%
Solubility @ RT ([1]; Triglyceride of caprylic/capric and succinic acid (Migylol 829)): <8%
Solubility @ RT ([1]; β-Cyclodextrin Sulfbutyl Ether 7 Sodium Salt 20% Solution (Captisol)): <10%
Comment: stability ([2]; Acetic Acid Glacial (50% solution), buffered 10% formulation, generation of new related subs in stability storage): Stability discontinued
Comment: stability ([2]; Lactic Acid (85% solution), 10% formulation by heating and buffering pH, generation of new related subs in stability storage): Stability discontinued
Comment: new related sub peaks in stability studies ([2]; MPEG solvents (MPEG 350, 550)): number of new related sub
Comment: reaction with solvent ([2]; Methanol, forms methoxy ractopamine related substance): Methanol reacts with
Comment: new related sub peaks in stability studies ([2]; PEG solvents (PEG 200, 300)): number of new related sub
Comment: new related substance peaks in stability studies ([2]; Pluronic L61 to water at 50/50, 10% ractopamine): a number of new related
Comment: stability ([2]; Propionic Acid (20% solution), generated a number of large related sub peaks): Stability discontinued -
Comment: physical stability on storage ([3]; Polyoxyethylene 20 Sorbitan Monolaurate to water below 50/50, prolonged storage at 5° C.): below 50/50 precipitate after
Comment: physical stability on storage ([3]; Polyoxyethylene-20-Sorbitan Monooleate to water below 50/50, prolonged storage at 5° C.): below 50/50 precipitate after
Comment: physical stability on storage ([3]; Polyoxyl 35 Castor Oil to water at 50/50, short term (3 months) storage at 5° C.): somewhat viscous and precipitate
SMILES: CC(CCc1ccc(O)cc1)NCC(O)c1ccc(O)cc1 (stereo not drawn) [ractopamine HCl]

solubility ([1]; PSL to water 50:50 w/w): greater than 10%
new related substances ([2]; aqueous PSL vehicle, storage up to 24 months at 25° C. and 12 months at 40° C.): < 0.2%
new related substances ([2]; aqueous PSO vehicle, storage up to 24 months at 25° C.): < 0.2%
formation of new related substances during storage ([2]; propylene glycol solutions, normal room temperature (~25° C.)): new related substances form slowly
solubility ([4]; 100% propylene glycol (PG) or aqueous vehicle system containing PG): > 25 % w/w
solubility (capable of dissolving) ([4]; vehicle 50% PG and 50% water, 25° C.): at least 10%
concentration achievable in solution ([4]; vehicle system containing PEG 200, PEG 300, or both): > 20%
physical stability on storage ([3]; 10% ractopamine formulations, PSO to water below 50/50 w/w): precipitate out
physical stability on storage ([3]; Ten percent ractopamine formulations, PCO to water below 50/50 w/w): precipitate out
SMILES: CC(CCc1ccc(O)cc1)NCC(O)c1ccc(O)cc1 (stereo not drawn) [ractopamine]
reaction with solvent ([2]; PEG 200 / PEG 300 vehicle, not reversible under normal storage conditions): form covalently bonded related substances

Reference: patent publication US7943670B2, “Liquid formulations of ractopamine” (Eli Lilly and Company, priority 2004, dated 2011)
